Results reported in ChEMBL document CHEMBL3421577, “Discovery and biological evaluation of tetrahydrothieno[2,3-c]pyridine derivatives as selective metabotropic glutamate receptor 1 antagonists for the potential treatment of neuropathic pain” (Eur J Med Chem, 2015).
pIC50: −log10 of the molar value. Active and inactive are the calls of the source. No cut-off for these calls is given here.

Assays:
CYP2D6 = CYP2D6 (Homo sapiens, UniProt P10635); assay: Inhibition of recombinant human CYP2D6 assessed as remaining activity at 10 uM preincubated for 5 mins followed by substrate and NADP addition measured after 20 mins by fluorescence assay relative to control; assay type: ADME; conditions: read-out: Activity
[1] = biological target: T1, Metabotropic glutamate receptor 1 (Homo sapiens, UniProt Q13255); assay: Antagonist activity at human mGluR1 expressed in human Chem-3 cells assessed as inhibition of L-glutamate-induced calcium release at 10 uM by calcium-5 reagent-based fluorescence assay relative to control; assay type: functional, cell-based
Target sequence in this assay (Q13255 19-1194 limits assumed): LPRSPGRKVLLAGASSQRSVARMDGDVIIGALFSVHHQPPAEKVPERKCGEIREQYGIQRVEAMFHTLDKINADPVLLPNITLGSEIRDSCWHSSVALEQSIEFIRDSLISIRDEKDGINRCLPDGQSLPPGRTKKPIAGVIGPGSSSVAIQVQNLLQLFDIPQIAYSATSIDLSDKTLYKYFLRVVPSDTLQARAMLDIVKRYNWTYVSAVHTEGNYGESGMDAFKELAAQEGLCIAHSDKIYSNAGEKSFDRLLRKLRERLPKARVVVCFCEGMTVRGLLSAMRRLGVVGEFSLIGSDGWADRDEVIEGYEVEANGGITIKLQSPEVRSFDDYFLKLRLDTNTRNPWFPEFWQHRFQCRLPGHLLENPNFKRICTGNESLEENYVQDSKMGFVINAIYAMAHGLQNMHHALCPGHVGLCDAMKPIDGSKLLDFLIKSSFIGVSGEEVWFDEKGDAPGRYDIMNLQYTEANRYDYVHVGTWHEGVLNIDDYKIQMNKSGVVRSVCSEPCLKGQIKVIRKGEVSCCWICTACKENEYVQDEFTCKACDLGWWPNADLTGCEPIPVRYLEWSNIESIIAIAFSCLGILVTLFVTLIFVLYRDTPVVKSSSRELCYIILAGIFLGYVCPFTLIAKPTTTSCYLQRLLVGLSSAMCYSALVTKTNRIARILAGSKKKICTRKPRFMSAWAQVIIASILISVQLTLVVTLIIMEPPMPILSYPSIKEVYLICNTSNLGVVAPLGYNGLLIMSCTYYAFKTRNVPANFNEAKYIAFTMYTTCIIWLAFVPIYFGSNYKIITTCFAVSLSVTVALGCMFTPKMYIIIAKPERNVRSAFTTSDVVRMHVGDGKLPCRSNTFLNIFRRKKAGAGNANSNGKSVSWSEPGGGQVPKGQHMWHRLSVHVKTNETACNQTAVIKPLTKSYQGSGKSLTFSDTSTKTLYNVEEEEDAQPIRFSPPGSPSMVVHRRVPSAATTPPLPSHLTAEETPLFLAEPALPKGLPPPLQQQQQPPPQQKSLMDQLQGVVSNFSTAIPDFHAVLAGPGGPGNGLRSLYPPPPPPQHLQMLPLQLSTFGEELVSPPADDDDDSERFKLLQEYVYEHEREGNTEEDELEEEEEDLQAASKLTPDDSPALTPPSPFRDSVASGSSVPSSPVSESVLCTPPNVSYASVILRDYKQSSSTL

CYP1A2 = biological target: T2, CYP1A2 (Homo sapiens, UniProt P05177); assay: Inhibition of recombinant human CYP1A2 assessed as remaining activity at 10 uM preincubated for 5 mins followed by substrate and NADP addition measured after 20 mins by fluorescence assay relative to control; assay type: ADME; conditions: read-out: Activity
T2 sequence (P05177 whole entry): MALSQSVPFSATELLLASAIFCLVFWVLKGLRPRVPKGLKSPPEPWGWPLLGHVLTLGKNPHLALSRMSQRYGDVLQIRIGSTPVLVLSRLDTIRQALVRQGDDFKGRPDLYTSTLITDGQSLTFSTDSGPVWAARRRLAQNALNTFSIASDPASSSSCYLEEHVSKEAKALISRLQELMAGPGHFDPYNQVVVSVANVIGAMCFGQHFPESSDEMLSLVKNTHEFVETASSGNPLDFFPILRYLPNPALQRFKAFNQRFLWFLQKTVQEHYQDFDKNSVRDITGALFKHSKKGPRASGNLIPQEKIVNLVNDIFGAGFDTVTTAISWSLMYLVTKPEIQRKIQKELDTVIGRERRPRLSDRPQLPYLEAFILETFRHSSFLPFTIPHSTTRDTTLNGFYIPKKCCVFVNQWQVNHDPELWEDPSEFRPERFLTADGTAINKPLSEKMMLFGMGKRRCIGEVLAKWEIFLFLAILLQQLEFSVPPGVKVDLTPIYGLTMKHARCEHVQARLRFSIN

CYP3A4 = CYP3A4 (Homo sapiens, UniProt P08684); assay: Inhibition of recombinant human CYP3A4 assessed as remaining activity at 10 uM preincubated for 5 mins followed by substrate and NADP addition measured after 20 mins by fluorescence assay relative to control; assay type: ADME; conditions: read-out: Activity
CYP3A4, sequence (P08684 whole entry): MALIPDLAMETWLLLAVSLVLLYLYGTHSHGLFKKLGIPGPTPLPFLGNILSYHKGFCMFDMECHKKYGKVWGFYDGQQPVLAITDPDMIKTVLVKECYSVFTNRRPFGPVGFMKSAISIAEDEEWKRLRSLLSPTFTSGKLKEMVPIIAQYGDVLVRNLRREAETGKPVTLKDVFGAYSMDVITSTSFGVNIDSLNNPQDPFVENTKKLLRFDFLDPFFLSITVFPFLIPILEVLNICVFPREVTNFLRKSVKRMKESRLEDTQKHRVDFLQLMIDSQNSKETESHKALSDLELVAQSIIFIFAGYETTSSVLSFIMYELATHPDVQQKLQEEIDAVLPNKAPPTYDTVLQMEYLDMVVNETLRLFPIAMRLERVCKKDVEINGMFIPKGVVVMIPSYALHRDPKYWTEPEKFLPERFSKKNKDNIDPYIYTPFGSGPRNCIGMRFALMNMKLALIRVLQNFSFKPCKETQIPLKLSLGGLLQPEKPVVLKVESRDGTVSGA

[2] = biological target: T3, Metabotropic glutamate receptor 5 (Homo sapiens, UniProt P41594); assay: Antagonist activity at human mGluR5 expressed in human embryonic kidney cells assessed as inhibition of L-glutamate-induced calcium release at 10 uM by calcium-5 reagent-based fluorescence assay relative to control; assay type: functional, cell-based
Target sequence in this assay (P41594 21-1212 limits assumed): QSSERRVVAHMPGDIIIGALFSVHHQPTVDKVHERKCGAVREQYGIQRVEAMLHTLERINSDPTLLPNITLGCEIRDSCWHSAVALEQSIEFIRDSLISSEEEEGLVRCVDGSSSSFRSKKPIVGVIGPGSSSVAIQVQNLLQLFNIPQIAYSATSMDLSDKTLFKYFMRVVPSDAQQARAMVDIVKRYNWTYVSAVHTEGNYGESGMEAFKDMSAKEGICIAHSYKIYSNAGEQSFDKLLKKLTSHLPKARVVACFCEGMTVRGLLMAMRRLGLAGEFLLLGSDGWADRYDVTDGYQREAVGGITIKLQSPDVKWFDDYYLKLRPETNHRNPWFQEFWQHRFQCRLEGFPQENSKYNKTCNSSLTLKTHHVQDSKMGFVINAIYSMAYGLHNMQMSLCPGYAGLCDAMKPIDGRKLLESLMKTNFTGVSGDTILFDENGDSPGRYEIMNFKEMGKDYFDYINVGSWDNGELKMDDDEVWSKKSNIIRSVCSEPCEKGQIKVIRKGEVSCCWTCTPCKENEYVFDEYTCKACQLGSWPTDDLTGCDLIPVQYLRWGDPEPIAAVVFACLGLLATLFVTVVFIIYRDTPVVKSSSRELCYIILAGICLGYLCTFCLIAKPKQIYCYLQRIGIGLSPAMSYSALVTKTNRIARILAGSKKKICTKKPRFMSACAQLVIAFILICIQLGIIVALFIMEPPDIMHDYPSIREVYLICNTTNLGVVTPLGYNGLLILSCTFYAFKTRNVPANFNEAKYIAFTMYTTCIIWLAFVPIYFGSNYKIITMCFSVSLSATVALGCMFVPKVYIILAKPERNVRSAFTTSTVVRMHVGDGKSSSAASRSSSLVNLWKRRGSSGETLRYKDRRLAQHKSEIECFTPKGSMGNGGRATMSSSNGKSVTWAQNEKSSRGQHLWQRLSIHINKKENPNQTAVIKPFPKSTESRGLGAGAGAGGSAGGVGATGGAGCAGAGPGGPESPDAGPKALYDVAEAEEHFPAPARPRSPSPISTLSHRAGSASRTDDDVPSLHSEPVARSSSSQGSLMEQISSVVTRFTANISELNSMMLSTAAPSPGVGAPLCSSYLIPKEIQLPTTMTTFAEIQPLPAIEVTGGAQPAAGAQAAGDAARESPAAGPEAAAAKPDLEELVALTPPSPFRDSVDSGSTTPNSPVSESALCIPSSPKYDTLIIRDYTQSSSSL

[3] = biological target: T1, Metabotropic glutamate receptor 1; assay: Antagonist activity at human mGluR1 expressed in human Chem-3 cells assessed as inhibition of L-glutamate-induced calcium release by calcium-5 reagent-based fluorescence assay; assay type: functional, cell-based
[4] = Metabolic stability in human liver microsomes assessed as compound remaining at 1 uM after 30 mins by LC-MS/MS analysis in presence of NADPH; assay type: ADME; conditions: read-out: Stability
CYP2C9 = CYP2C9 (Homo sapiens, UniProt P11712); assay: Inhibition of recombinant human CYP2C9 assessed as remaining activity at 10 uM preincubated for 5 mins followed by substrate and NADP addition measured after 20 mins by fluorescence assay relative to control; assay type: ADME; conditions: read-out: Activity
CYP2C9, sequence (P11712 whole entry): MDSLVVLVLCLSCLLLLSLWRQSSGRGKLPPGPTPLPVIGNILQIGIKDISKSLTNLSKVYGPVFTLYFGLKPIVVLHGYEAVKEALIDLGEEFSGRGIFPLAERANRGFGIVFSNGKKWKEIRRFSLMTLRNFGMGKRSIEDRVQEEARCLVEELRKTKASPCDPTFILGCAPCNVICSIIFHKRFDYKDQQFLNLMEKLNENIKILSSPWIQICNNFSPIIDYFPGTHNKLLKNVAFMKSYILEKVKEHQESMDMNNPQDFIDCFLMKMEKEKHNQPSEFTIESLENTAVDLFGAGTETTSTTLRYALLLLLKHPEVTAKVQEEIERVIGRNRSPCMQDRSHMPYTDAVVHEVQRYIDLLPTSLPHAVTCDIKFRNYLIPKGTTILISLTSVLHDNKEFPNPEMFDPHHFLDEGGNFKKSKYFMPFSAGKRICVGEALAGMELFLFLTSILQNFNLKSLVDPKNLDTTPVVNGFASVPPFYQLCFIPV

CYP2C19 = CYP2C19 (Homo sapiens, UniProt P33261); assay: Inhibition of recombinant human CYP2C19 assessed as remaining activity at 10 uM preincubated for 5 mins followed by substrate and NADP addition measured after 20 mins by fluorescence assay relative to control; assay type: ADME; conditions: read-out: Activity
CYP2C19, sequence (P33261 whole entry): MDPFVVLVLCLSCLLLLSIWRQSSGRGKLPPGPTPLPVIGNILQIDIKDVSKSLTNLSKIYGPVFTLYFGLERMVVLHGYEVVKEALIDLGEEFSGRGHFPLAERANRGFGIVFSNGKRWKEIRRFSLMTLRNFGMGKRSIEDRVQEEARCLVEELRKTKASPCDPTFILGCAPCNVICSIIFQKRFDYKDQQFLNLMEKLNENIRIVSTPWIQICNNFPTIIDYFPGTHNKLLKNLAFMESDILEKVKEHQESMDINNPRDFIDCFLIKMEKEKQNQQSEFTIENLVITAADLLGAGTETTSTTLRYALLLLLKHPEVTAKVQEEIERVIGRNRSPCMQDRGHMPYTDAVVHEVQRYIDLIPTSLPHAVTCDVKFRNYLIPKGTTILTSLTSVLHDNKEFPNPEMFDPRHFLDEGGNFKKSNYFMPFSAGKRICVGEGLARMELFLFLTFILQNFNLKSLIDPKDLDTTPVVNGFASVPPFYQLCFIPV

[5] = biological target: T3, Metabotropic glutamate receptor 5; assay: Antagonist activity at human mGluR5 expressed in human embryonic kidney cells assessed as inhibition of L-glutamate-induced calcium release by calcium-5 reagent-based fluorescence assay; assay type: functional, cell-based
Target sequence in this assay (P41594 whole entry): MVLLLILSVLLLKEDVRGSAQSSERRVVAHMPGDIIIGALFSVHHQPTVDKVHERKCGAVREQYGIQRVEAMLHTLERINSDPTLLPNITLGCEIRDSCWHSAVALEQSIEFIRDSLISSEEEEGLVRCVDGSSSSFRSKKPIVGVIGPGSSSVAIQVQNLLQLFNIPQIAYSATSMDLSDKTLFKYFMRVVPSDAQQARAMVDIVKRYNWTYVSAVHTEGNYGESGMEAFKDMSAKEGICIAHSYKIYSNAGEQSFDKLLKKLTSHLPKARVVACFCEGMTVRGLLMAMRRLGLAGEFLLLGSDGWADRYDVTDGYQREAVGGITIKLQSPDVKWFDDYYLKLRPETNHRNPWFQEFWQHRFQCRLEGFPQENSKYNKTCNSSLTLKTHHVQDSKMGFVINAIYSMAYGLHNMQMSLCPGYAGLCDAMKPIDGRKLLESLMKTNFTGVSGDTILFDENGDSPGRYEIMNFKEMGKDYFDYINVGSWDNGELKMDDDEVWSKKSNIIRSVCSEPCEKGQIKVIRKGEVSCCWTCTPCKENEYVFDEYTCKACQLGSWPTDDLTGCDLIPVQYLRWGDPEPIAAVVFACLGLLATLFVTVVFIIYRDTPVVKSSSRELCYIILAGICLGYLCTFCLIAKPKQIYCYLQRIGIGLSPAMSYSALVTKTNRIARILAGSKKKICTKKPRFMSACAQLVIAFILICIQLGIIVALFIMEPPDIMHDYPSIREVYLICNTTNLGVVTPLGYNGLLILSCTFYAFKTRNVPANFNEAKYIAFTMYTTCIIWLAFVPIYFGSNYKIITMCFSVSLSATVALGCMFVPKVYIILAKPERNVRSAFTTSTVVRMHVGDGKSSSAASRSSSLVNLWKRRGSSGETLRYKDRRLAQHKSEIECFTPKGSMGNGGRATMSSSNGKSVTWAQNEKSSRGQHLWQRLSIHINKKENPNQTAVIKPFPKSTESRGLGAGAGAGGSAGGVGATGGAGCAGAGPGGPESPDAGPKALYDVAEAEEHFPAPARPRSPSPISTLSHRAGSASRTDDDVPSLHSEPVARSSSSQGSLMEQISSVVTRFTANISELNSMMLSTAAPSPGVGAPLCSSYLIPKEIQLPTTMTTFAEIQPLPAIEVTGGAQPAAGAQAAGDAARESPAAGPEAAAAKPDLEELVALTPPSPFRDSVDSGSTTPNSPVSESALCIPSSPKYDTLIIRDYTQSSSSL

Rattus norvegicus [6] = assay: Analgesic activity in rat spinal nerve ligation model of neuropathic pain assessed as recovery from mechanical allodynia at 100 mg/kg, po administered on day 14 post ligation surgery measured after 3 hrs relative to control; assay type: functional
Rattus norvegicus [7] = assay: Analgesic activity in rat spinal nerve ligation model of neuropathic pain assessed as recovery from cold allodynia at 100 mg/kg, po administered on day 14 post ligation surgery measured after 1 hr relative to control; assay type: functional

Cc1cccc(C(=O)N2CCc3c(sc(NCc4ccccc4)c3C#N)C2)c1
activity at 20 min, 10 µM (CYP2D6): 35.7%
inhibition [1]: 73.5%
activity at 20 min, 10 µM (CYP1A2): 42.6%
activity at 20 min, 10 µM (CYP3A4): 9.36%
inhibition [2]: 8.8%
pIC50 [3]: 5.50
remaining at 0.5 h, 1 µM [4]: 16.4%
activity at 20 min, 10 µM (CYP2C9): 4.33%
activity at 20 min, 10 µM (CYP2C19): 4.57%

Cc1cc(C(=O)N2CCc3c(sc(NC(=O)c4ccccc4)c3C#N)C2)[nH]n1
inhibition [1]: 8.51%
inhibition [2]: 27.8%

COc1ccc(C(=O)Nc2sc3c(c2C#N)CCN(C(=O)c2cc(C(C)C)n[nH]2)C3)cc1
inhibition [1]: -6.42%
inhibition [2]: 63.1%
pIC50 [5]: 5.32

Cc1cc(C(=O)N2CCc3c(sc(NCc4ccc(Cl)cc4)c3C#N)C2)[nH]n1
inhibition [1]: 40.9%
inhibition [2]: 31.2%

N#Cc1c(NCc2ccccc2)sc2c1CCN(C(=O)c1cnccc1F)C2
inhibition [1]: 90.1%
inhibition [2]: 16%
pIC50 [3]: 5.91

N#Cc1c(NCc2ccc(F)cc2)sc2c1CCN(C(=O)c1ccccc1)C2
activity at 20 min, 10 µM (CYP2D6): 36.4%
inhibition [1]: 77.8%
activity at 20 min, 10 µM (CYP1A2): 52%
activity at 20 min, 10 µM (CYP3A4): 24.2%
inhibition [2]: 26.4%
pIC50 [3]: 5.74
remaining at 0.5 h, 1 µM [4]: 33.4%
activity at 20 min, 10 µM (CYP2C9): 5.48%
activity at 20 min, 10 µM (CYP2C19): 3.81%

N#Cc1c(NCc2ccccc2)sc2c1CCN(C(=O)c1ccccc1)C2
inhibition [1]: 66.4%
inhibition [2]: 46%
pIC50 [3]: 5.55

Cc1ccc(C(=O)N2CCc3c(sc(NCc4cccc(F)c4)c3C#N)C2)cc1
inhibition [1]: 43.9%
inhibition [2]: 54.8%

CC(C)c1cc(C(=O)N2CCc3c(sc(NCc4ccccc4)c3C#N)C2)[nH]n1
inhibition [1]: 54.4%
inhibition [2]: 8.89%
pIC50 [3]: 4.36

N#Cc1c(NCc2ccc(F)cc2)sc2c1CCN(C(=O)c1ccc(F)cc1)C2
inhibition [1]: 73.1%
inhibition [2]: 22.3%

CC(C)c1cc(C(=O)N2CCc3c(sc(NCc4ccc(Cl)cc4)c3C#N)C2)[nH]n1
inhibition [1]: 46.3%
inhibition [2]: 24.8%

Cc1ccc(C(=O)N2CCc3c(sc(NCc4ccccc4)c3C#N)C2)cc1
inhibition [1]: 69.7%
inhibition [2]: 24.3%
pIC50 [3]: 5.33

COc1ccc(C(=O)N2CCc3c(sc(NCc4ccc(C#N)cc4)c3C#N)C2)cc1
inhibition [1]: 10.9%
inhibition [2]: 41.5%

COc1ccc(C(=O)N2CCc3c(sc(NCc4ccc(F)cc4)c3C#N)C2)cc1
inhibition [1]: 47.7%
inhibition [2]: 68%
pIC50 [5]: 5.84

COc1ccc(C(=O)N2CCc3c(sc(NCc4cccc(F)c4)c3C#N)C2)cc1
inhibition [1]: 42.8%
inhibition [2]: 69%
pIC50 [5]: 5.33

N#Cc1c(NCc2cccc(F)c2)sc2c1CCN(C(=O)c1ccccc1)C2
inhibition [1]: 63.9%
inhibition [2]: 44.2%
pIC50 [3]: 5.27

Cc1ccc(C(=O)N2CCc3c(sc(NCc4ccc(F)cc4)c3C#N)C2)cc1
inhibition [1]: 46.6%
inhibition [2]: 37.6%

CC(C)c1cc(C(=O)N2CCc3c(sc(NC(=O)c4ccc(F)cc4)c3C#N)C2)[nH]n1
inhibition [1]: 28.5%
inhibition [2]: -2.3%

N#Cc1ccc(CNc2sc3c(c2C#N)CCN(C(=O)c2ccccc2)C3)cc1
inhibition [1]: 36.8%
inhibition [2]: 3.16%

CC(C)c1cc(C(=O)N2CCc3c(sc(NCc4ccc(F)cc4)c3C#N)C2)[nH]n1
inhibition [1]: 40.7%
inhibition [2]: 43.1%

NCC1(CC(=O)O)CCCCC1 [GABAPENTIN]
Activity (Rattus norvegicus [6]): 80%
Activity (Rattus norvegicus [7]): 40%

N#Cc1c(NCc2ccccc2)sc2c1CCN(C(=O)c1ccc(F)cc1)C2
activity at 20 min, 10 µM (CYP2D6): 42%
Activity (Rattus norvegicus [6]): inactive
inhibition [1]: 91.5%
activity at 20 min, 10 µM (CYP1A2): 58.1%
activity at 20 min, 10 µM (CYP3A4): 20%
inhibition [2]: 26.1%
pIC50 [3]: 6.22
remaining at 0.5 h, 1 µM [4]: 49.4%
activity at 20 min, 10 µM (CYP2C9): 5.48%
Activity (Rattus norvegicus [7]): Active
activity at 20 min, 10 µM (CYP2C19): 9.94%

COc1cccc(CNc2sc3c(c2C#N)CCN(C(=O)c2cccc(F)c2)C3)c1
inhibition [1]: 15.5%
inhibition [2]: 33.2%

COc1cccc(CNc2sc3c(c2C#N)CCN(C(=O)c2ccc(F)cc2)C3)c1
activity at 20 min, 10 µM (CYP2D6): 35%
inhibition [1]: 67.5%
activity at 20 min, 10 µM (CYP1A2): 78.5%
activity at 20 min, 10 µM (CYP3A4): 12.5%
inhibition [2]: 31.1%
pIC50 [3]: 5.51
remaining at 0.5 h, 1 µM [4]: 12.1%
activity at 20 min, 10 µM (CYP2C9): 6.46%
activity at 20 min, 10 µM (CYP2C19): 7.99%

N#Cc1c(NCc2ccc(F)cc2)sc2c1CCN(C(=O)c1ccn[nH]1)C2
inhibition [1]: 91.4%
inhibition [2]: 13.5%
pIC50 [3]: 5.69

Cc1cc(C(=O)N2CCc3c(sc(NC(=O)c4ccc(Cl)cc4)c3C#N)C2)[nH]n1
inhibition [1]: 42.2%
inhibition [2]: -2.15%

N#Cc1c(NCc2ccccc2)sc2c1CCN(C(=O)c1ccn[nH]1)C2
inhibition [1]: 94.9%
inhibition [2]: 4.48%
pIC50 [3]: 5.96

N#Cc1c(NCc2cccc(F)c2)sc2c1CCN(C(=O)c1ccc(Cl)cc1)C2
inhibition [1]: 41.2%
inhibition [2]: 60%

CC(C)c1cc(C(=O)N2CCc3c(sc(NC(=O)c4ccc(Cl)cc4)c3C#N)C2)[nH]n1
inhibition [1]: 62.5%
inhibition [2]: -4.28%
pIC50 [3]: 4.91

Cc1cc(C(=O)N2CCc3c(sc(NC(=O)c4ccc(F)cc4)c3C#N)C2)[nH]n1
inhibition [1]: 31%
inhibition [2]: 13.7%

COc1ccc(C(=O)Nc2sc3c(c2C#N)CCN(C(=O)c2cc(C)n[nH]2)C3)cc1
inhibition [1]: -9.58%
inhibition [2]: 28.3%

N#Cc1c(NCc2ccc(Cl)cc2)sc2c1CCN(C(=O)c1ccc(F)cc1)C2
inhibition [1]: 35.2%
inhibition [2]: 25.3%

N#Cc1c(NCc2cccc(F)c2)sc2c1CCN(C(=O)c1ccc(F)cc1)C2
inhibition [1]: 82%
inhibition [2]: 36.5%
pIC50 [3]: 5.62

CC(C)c1cc(C(=O)N2CCc3c(sc(NC(=O)c4ccccc4)c3C#N)C2)[nH]n1
inhibition [1]: 14.6%
inhibition [2]: 39.3%

Cc1cc(C(=O)N2CCc3c(sc(NCc4ccc(F)cc4)c3C#N)C2)[nH]n1
inhibition [1]: 84.2%
inhibition [2]: 37.6%
pIC50 [3]: 5.61

N#Cc1c(NCc2ccccc2)sc2c1CCN(C(=O)c1cccc(F)c1)C2
inhibition [1]: 79%
inhibition [2]: 29.8%
pIC50 [3]: 5.54
